Experimental data as given in US8088761B2, “Enzyme inhibitors” (Cancer Research Technology Limited, priority 2005, dated 2012).

What was measured:
[1] = target: T1, Aurora-A (Homo sapiens, UniProt O14965); experiment: Filterplate assay for Aurora-A inhibitors; format: biochemical; conditions: read-out: IC50 against Aurora-A
T1 sequence (O14965 1-403): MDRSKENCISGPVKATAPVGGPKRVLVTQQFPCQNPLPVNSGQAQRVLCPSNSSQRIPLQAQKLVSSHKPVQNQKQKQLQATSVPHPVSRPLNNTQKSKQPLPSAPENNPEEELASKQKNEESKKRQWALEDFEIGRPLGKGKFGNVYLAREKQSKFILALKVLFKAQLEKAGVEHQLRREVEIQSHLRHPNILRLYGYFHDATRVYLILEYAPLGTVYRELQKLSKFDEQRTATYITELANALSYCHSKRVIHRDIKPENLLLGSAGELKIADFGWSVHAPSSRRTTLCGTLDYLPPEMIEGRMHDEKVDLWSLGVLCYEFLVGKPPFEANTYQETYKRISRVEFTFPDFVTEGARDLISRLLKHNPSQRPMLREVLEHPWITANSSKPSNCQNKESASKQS
Description: Filterplate Assay for Identification and Evaluation of Aurora-A Inhibitors
40 μl master mix of kinase buffer (50 mM Tris pH 7.5, 10 mM NaCl, 2.5 mM MgCL2, 1 mM DTT, 20 μM ATP, 0.025 μCi/μl ^33P-ATP, and 100 μg/ml MBP was added to a 96-well plate followed by addition of 250 ng of Aurora-A enzyme per well. The plate was shaken for approximately 2 min on a flat-bed plate shaker (Wellmix, Denley, UK) and incubated for 2 hours at room temperature. The reaction was stopped by the addition of 30 μl of 2% orthophosphoric acid. The reaction mixture was then transferred and filtered on the 96-well Multi-Screening Filter Plate (MATAH0P00, MILLIPORE), pre-treated with 50 μl per well of 0.5% orthophosphoric acid. The plate was washed twice with 200 μl of 0.5% orthophosphoric acid and vacuum-dried. 25 μl of scintillant (Microscint™20, PerkinElmer) per well was added and the plate was shaken for 10 min. Finally, the plate was re-sealed with TopSealA and the signal from the filter-bound component was read on TopCount-NXT™ (PerkinElmer Life Sciences UK Ltd., Hounslow, UK).

[2] = target: Aurora-B (Homo sapiens, UniProt Q96GD4); experiment: Flashplate assay for Aurora-B inhibitors; format: biochemical; conditions: read-out: IC50 against Aurora-B
Description: (§1) On this assay 384-well Basic Flashplate® (SMP400E, PerkinElmer) as solid assay platform was used. The plates were coated overnight at 4° C. with […] at 100 μg/ml in PBS buffer and used after being washed twice with PBS. 5 μl of compound in 2% DMSO was added to each well followed by 15 μl master mix of kinase buffer (50 mM Tris pH 7.5, 10 mM NaCl, 2.5 mM MgCl2, 1 mM […], 20 μM ATP, and 0.025 μCi/μl ^33P-ATP). Finally, 250 ng per well of Aurora-A enzyme was added. The plate was shaken for approximately 2 min on a flat-bed plate shaker (Wellmix, Denley, UK) and incubated for 2 hours at room temperature. The reaction was stopped by washing the plate twice on a 16-pin wash (ELX50 BioTek Instruments Ltd., Northstar, Bedford, UK) with 10 mM sodium pyrophosphate. The plate was then read on a TopCount-NX™ (PerkinElmer Life Sciences UK Ltd., Hounslow, UK).
(§2) Flashplate® Assay for Identification and Evaluation of Aurora-B and Aurora-C Inhibitors
(§3) For the determination of the inhibitory activity against Aurora-B or Aurora-C, the same conditions were followed in the assay using Aurora-B or Aurora-C enzymes.

[3] = target: T2, Aurora-C (Homo sapiens, UniProt Q9UQB9); experiment: Flashplate assay for Aurora-C inhibitors; format: biochemical; conditions: read-out: IC50 against Aurora-C
T2 sequence (Q9UQB9 1-309): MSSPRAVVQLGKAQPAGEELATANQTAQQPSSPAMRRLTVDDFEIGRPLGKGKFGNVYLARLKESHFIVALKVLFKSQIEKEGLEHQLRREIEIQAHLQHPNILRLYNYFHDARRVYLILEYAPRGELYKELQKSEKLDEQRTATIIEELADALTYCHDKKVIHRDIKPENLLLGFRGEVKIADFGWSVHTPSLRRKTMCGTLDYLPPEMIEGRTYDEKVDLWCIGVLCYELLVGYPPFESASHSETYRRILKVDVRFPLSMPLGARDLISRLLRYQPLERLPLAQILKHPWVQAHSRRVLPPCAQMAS
Description: as §1, §2, §3

[4] = target: T1, Aurora-A; experiment: Flashplate Aurora A enzyme inhibition assay; format: biochemical; conditions: Flashplate assay; IC50 range; read-out: Aurora-A inhibition
Outline: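 This is a radiometric Flashplate format: plates were precoated with DTT, and compound (in 2% DMSO) was mixed with kinase buffer (pH 7.5 Tris, MgCl2, NaCl) containing 1 mM MBP, 20 μM ATP and ^33P-ATP. The reaction was started with 250 ng Aurora-A per well and incubated 2 h at RT. It was then stopped by 10 mM sodium pyrophosphate washing, and plates were scintillation-counted.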

[5] = test system: HCT116 cells; experiment: Cell viability assay (MTT) in HCT116 cell line; format: cell-based; conditions: Homo sapiens, HCT-116, 72 hrs, IC50 range, read-out: HCT116 cell growth inhibition
Outline: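 MTT read-out (4 hrs, 37 °C, DMSO extraction) following 72 hrs of treatment with 0-50 μM Aurora inhibitor. HCT116 cells were plated a day earlier and tested in triplicate; IC50 derived from the curve.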

Chain of Aurora-B (Q96GD4 whole entry): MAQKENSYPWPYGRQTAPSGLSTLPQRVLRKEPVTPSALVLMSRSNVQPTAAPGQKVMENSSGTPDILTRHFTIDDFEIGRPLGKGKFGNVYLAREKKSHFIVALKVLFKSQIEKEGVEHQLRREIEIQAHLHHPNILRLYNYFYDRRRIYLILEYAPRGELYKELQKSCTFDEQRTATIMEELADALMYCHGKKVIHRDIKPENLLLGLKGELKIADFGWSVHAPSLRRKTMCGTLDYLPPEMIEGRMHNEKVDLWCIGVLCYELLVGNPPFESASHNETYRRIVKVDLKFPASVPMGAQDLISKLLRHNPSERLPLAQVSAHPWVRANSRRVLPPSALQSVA

## CN(C)c1ccc(-c2nc3c(N4CCN(CC(=O)Nc5nccs5)CC4)c(Cl)cnc3[nH]2)cc1 [Example 1, 2-{4-[6-Chloro-2-(4-dimethylamino-phenyl)-3H-imidazo[4,5-b]pyridin-7-yl]-piperazin-1-yl}-N-thiazol-2-yl-acetamide]
[1]
  IC50: 0.08 µM
[2]
  IC50: 0.11 µM
[3]
  IC50: 0.362 µM
[4]
  IC50: < 0.5 µM
[5]
  IC50: < 0.5 µM
